Source: PubChem BioAssay AID1259411 (Chemical Carcinogenesis Research Information System (CCRIS), 2018)
Activity calls are given as the source filed them. No rule for the calls is given here.

System: rodent carcinogenicity bioassays, tumor incidence
Assay: CCRIS carcinogenicity studies
Conditions: Dose: 0, Dose: 0
In short: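 NCI-built, expert-reviewed records of carcinogenicity and related test outcomes (mutagenicity, tumor promotion/inhibition) compiled from published and report sources, historical span 1985-2011, not updated.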

ClCCl
carcinogen call (Species: HAMSTER, Strain/Sex: SYRIAN/FEMALE, Route: INHALATION, 500, 1500, 3500 PPM IN AIR 6H/D 5D/WK FOR 104 WK (STUDY DURATION: 2 YR), 500, 1500, 3500 PPM IN AIR 6H/D 5D/WK FOR 104 WK (STUDY DURATION: 2 YR)): inactive; negative | carcinogen call (Species: HAMSTER, Strain/Sex: SYRIAN/MALE, Route: INHALATION, 500, 1500, 3500 PPM IN AIR 6H/D 5D/WK FOR 104 WK (STUDY DURATION: 2 YR), 500, 1500, 3500 PPM IN AIR 6H/D 5D/WK FOR 104 WK (STUDY DURATION: 2 YR)): inactive; negative | carcinogen call (Species: MOUSE, Strain/Sex: B6C3F1/FEMALE, Route: INHALATION, 2000, 4000 PPM 6 HR/D, 5 D/WK FOR 102 WK, 2000, 4000 PPM 6 HR/D, 5 D/WK FOR 102 WK, Tumor Site: Type of Lesion: LUNG: ALVEOLAR/BRONCHIOLAR ADENOMA, ALVEOLAR/BRONCHIOLAR CARCINOMA, LIVER: HEPATOCELLULAR ADENOMA, HEPATOCELLULAR CARCIN): active; positive | carcinogen call (Species: MOUSE, Strain/Sex: B6C3F1/FEMALE, Route: INHALATION, 2000 PPM 6 HR/D 5 D/WK FOR 26 WK FOLLOWED BY CHAMBER AIR EXPOSURE FOR 78 WK (STUDY DURATION: 104 WK), Tumor Site: Type of Lesion: LUNG: ADENOMA OR CARCINOMA): active; positive | carcinogen call (Species: MOUSE, Strain/Sex: B6C3F1/FEMALE, Route: INHALATION, 2000 PPM 6 HR/D 5 D/WK FOR 26 WK FOLLOWING A 78 WK EXPOSURE TO CHAMBER AIR (STUDY DURATION: 104 WK)): inactive; negative | carcinogen call (Species: MOUSE, Strain/Sex: B6C3F1/FEMALE, Route: INHALATION, 2000 PPM 6 HR/D 5 D/WK FOR 52 WK FOLLOWED BY CHAMBER AIR EXPOSURE FOR 52 WK (STUDY DURATION: 104 WK), Tumor Site: Type of Lesion: LUNG: ADENOMA OR CARCINOMA, LIVER: ADENOMA OR CARCINOMA): active; positive | carcinogen call (Species: MOUSE, Strain/Sex: B6C3F1/FEMALE, Route: INHALATION, 2000 PPM 6 HR/D 5 D/WK FOR 52 WK FOLLOWING A 52 WK EXPOSURE TO CHAMBER AIR (STUDY DURATION: 104 WK)): inactive; negative | carcinogen call (Species: MOUSE, Strain/Sex: B6C3F1/FEMALE, Route: INHALATION, 2000 PPM 6 HR/D 5 D/WK FOR 78 WK FOLLOWED BY CHAMBER AIR EXPOSURE FOR 26 WK (STUDY DURATION: 104 WK), Tumor Site: Type of Lesion: LUNG: ADENOMA OR CARCINOMA, LIVER: ADENOMA OR CARCINOMA): active; positive | carcinogen call (Species: MOUSE, Strain/Sex: B6C3F1/FEMALE, Route: INHALATION, 2000 PPM 6 HR/D 5 D/WK FOR 78 WK FOLLOWING A 26 WK EXPOSURE TO CHAMBER AIR (STUDY DURATION: 104 WK), Tumor Site: Type of Lesion: LUNG: ADENOMA OR CARCINOMA, LIVER: ADENOMA OR CARCINOMA): active; positive | carcinogen call (Species: MOUSE, Strain/Sex: B6C3F1/FEMALE, Route: INHALATION, 2000 PPM 6 HR/D 5 D/WK FOR 104 WK (STUDY DURATION: 104 WK), Tumor Site: Type of Lesion: LIVER: ADENOMA, CARCINOMA, LUNG: ADENOMA, CARCINOMA): active; positive | carcinogen call (Species: MOUSE, Strain/Sex: B6C3F1/FEMALE, Route: INHALATION, 2000 PPM 6 HR/D 5 D/WK FOR 104 WK (STUDY DURATION: 104 WK), Tumor Site: Type of Lesion: LUNG: ADENOMA OR CARCINOMA, LIVER: ADENOMA OR CARCINOMA): active; positive | carcinogen call (Species: MOUSE, Strain/Sex: B6C3F1/MALE, Route: INHALATION, 2000, 4000 PPM 6 HR/D, 5 D/WK FOR 102 WK, 2000, 4000 PPM 6 HR/D, 5 D/WK FOR 102 WK, Tumor Site: Type of Lesion: LUNG: ALVEOLAR/BRONCHIOLAR ADENOMA, ALVEOLAR/BRONCHIOLAR CARCINOMA, LIVER: HEPATOCELLULAR ADENOMA, HEPATOCELLULAR CARCIN): active; positive | carcinogen call (Species: MOUSE, Strain/Sex: SWISS/FEMALE, Route: GAVAGE, 100, 500 MG/KG IN OLIVE OIL 1/D 5 D/WK FOR 64 WK (STUDY DURATION: LIFETIME), 100, 500 MG/KG IN OLIVE OIL 1/D 5 D/WK FOR 64 WK (STUDY DURATION: LIFETIME)): inactive; negative | carcinogen call (Species: RAT, Strain/Sex: F344/FEMALE, Route: INHALATION, 1000, 2000, 4000 PPM 6 HR/D, 5 D/WK FOR 102 WK, 1000, 2000, 4000 PPM 6 HR/D, 5 D/WK FOR 102 WK, Tumor Site: Type of Lesion: MAMMARY GLAND: FIBROADENOMA, ADENOMA OR FIBROADENOMA, HEMATOPOIETIC SYSTEM (LEUKEMIA): MONONUCLEAR CELL LEUKEMIA): active; positive | carcinogen call (Species: RAT, Strain/Sex: F344/MALE, Route: INHALATION, 1000, 2000, 4000 PPM 6 HR/D, 5 D/WK FOR 102 WK, 1000, 2000, 4000 PPM 6 HR/D, 5 D/WK FOR 102 WK, Tumor Site: Type of Lesion: MAMMARY GLAND: FIBROADENOMA, ADENOMA OR FIBROADENOMA, TUNICA VAGINALIS: MESOTHELIOMA, MULTIPLE SITES: MESOTHELIOMA, Tumor Site: Type of Lesion: MAMMARY GLAND: FIBROADENOMA, ADENOMA OR FIBROADENOMA, TUNICA VAGINALIS: MESOTHELIOMA, MULTIPLE SITES: MESOTHELIOMA): active; positive | carcinogen call (Species: RAT, Strain/Sex: SPRAGUE-DAWLEY/FEMALE, Route: GAVAGE, 100, 500 MG/KG IN OLIVE OIL 1/D 5 D/WK FOR 64 WK (STUDY DURATION: LIFETIME), 100, 500 MG/KG IN OLIVE OIL 1/D 5 D/WK FOR 64 WK (STUDY DURATION: LIFETIME)): inactive; negative | carcinogen call (Species: RAT, Strain/Sex: SPRAGUE-DAWLEY/FEMALE, Route: INHALATION, 100 PPM 4 HR/D 5 D/WK FOR 7 WK THEN 7 HR/D 5 D/WK FOR 97 WK BEGINNING WHEN RATS WERE 12 DAY OLD EMBRYOS (STUDY DURATI): inactive; negative | carcinogen call (Species: RAT, Strain/Sex: SPRAGUE-DAWLEY/FEMALE, Route: INHALATION, 500, 1500, 3500 PPM IN AIR 6H/D 5D/WK FOR 104 WK (STUDY DURATION: 2 YR), 500, 1500, 3500 PPM IN AIR 6H/D 5D/WK FOR 104 WK (STUDY DURATION: 2 YR)): inactive; negative | carcinogen call (Species: RAT, Strain/Sex: SPRAGUE-DAWLEY/MALE, Route: GAVAGE, 100, 500 MG/KG IN OLIVE OIL 1/D 5 D/WK FOR 64 WK (STUDY DURATION: LIFETIME), 100, 500 MG/KG IN OLIVE OIL 1/D 5 D/WK FOR 64 WK (STUDY DURATION: LIFETIME)): inactive; negative | carcinogen call (Species: RAT, Strain/Sex: SPRAGUE-DAWLEY/MALE, Route: INHALATION, 100 PPM 4 HR/D 5 D/WK FOR 7 WK THEN 7 HR/D 5 D/WK FOR 97 WK BEGINNING WHEN RATS WERE 12 DAY OLD EMBRYOS (STUDY DURATI): inactive; negative | carcinogen call (Species: RAT, Strain/Sex: SPRAGUE-DAWLEY/MALE, Route: INHALATION, 500, 1500, 3500 PPM IN AIR 6H/D 5D/WK FOR 104 WK (STUDY DURATION: 2 YR), 500, 1500, 3500 PPM IN AIR 6H/D 5D/WK FOR 104 WK (STUDY DURATION: 2 YR), Tumor Site: Type of Lesion: SALIVARY GLAND: SARCOMA): active; positive

O=[N+]([O-])c1cc(O)c2ccc3cccc4ccc1c2c34
carcinogen call (Species: RAT, Strain/Sex: STRAIN-CD/FEMALE, Route: SUBCUTANEOUS, 63 UMOL (TOTAL DOSE) ADMINISTERED OVER 8 WK BEGINNING WITHIN 24 HR OF BIRTH (STUDY DURATION: 86 WK)): inactive; negative

CCCCCCCCCCCCc1ccccc1
carcinogen call (Species: MOUSE, Strain/Sex: HR/HR OSLO/MALE, FEMALE, Route: DERMAL, 16, 80% IN ACETONE 2/WK FOR 78 WK (STUDY DURATION: 80 WK), 16, 80% IN ACETONE 2/WK FOR 78 WK (STUDY DURATION: 80 WK), Tumor Site: Type of Lesion: SKIN: TUMOR): active; positive

O=NN1CCCC[C@H]1c1cccnc1
carcinogen call (Species: MOUSE, Strain/Sex: STRAIN-A/FEMALE, Route: INTRAPERITONEAL, 100 UMOL TOTAL DOSE ADMINISTERED IN SUBDOSES 3/WK FOR 7 WK (STUDY DURATION: 37 WK), Tumor Site: Type of Lesion: LUNG: TUMOR): active; positive
